Key:
rat2 cells = assay: In vitro clonogenic cell survival assay, modulation of cisplatinum toxicity in normal cells (RATIO method); type: cell-based, rat; settings: with cisplatinum
Source text: (§1) The protocol detailed below can be used for any normal/tumorigenic cell pair which will attach to plastic. Non-adherent lines (which includes most tumor cells, including NW16; consult references 5-10) require quantitation in soft agar. The present experiments are based on i) rat2 cells, a phenotypically normal, established rat fibroblast line and, ii) a tumorigenic derivative thereof, NW16 cells, which are rat2 cells transformed by a Fujinami sarcoma virus oncogene (see work of A. Pawson and P130^gag-fps). Rat2 and NW16 cells are maintained in a sub-confluent randomly-proliferating state in Dulbecco's modified minimal essential media with 10% (vol/vol) calf serum in plates incubated at 37° C. in a humidified CO2 (10%) incubator. All experiments reported rely on clonogenic cell survival assays (see references 4-6). Assays using rat2 (normal cells) were performed as follows: cells are exposed, in 10 cm culture dishes, to various drugs in media plus serum for varying lengths of time; seeding is at varying cell numbers, over log10 ranges, depending upon the degree of killing anticipated. [For the figure presented, incubation was for 72 hours prior to washing and assessment of clonogenic survival]. Both control and the experimental cultures are then gently washed, twice, with phosphate buffered saline, then once more with media minus serum, and then left in media plus serum, undisturbed until macroscopic colonies appear (7-9 days of incubation). The colonies are then fixed and stained with saturated methylene blue in 50% methanol and counted. The number of colonies, evaluated from 2 or more sets of duplicate cultures seeded at initial densities differing by factors of 10, are determined and converted to relative number of colonies, using the 0-hour control value as 1.0. Assays of NW16 cells were similar; however, because these cells are poorly adherent, following drug exposure, the washing procedure is modified, as is the quantitation of survivors step. In the latter case, quantitation requires plating the cells in soft agar (references 5-10).
A simplified presentation of the data, by the RATIO method, is show in FIG. 1. […] Ratios greater than unity indicate that the modulator has conferred a protective response, whereas ratios less than unity indicate an enhanced cell killing.

NW16 cells = assay: In vitro clonogenic cell survival assay in soft agar, modulation of cisplatinum toxicity in tumorigenic cells (RATIO method); type: cell-based, rat; settings: for enhanced killing of tumor cells in the presence of cisplatinum (result in words): in vitro fibroblast model
Source text: as §1, with “5-10). […]” for “5-10).”

[1] = tested on: normal femoral bone marrow cells (CFU-C/GM); assay: In vivo assessment of anticancer drug modulators: relative cell survival of normal femoral bone marrow cells in P388-bearing mice; settings: for toxicity of cisplatinum to the marrow cells in the presence of modulator / protection of normal bone marrow cells (result in words): DBA/2J mice with P388, ip; for toxicity of cisplatinum to the marrow cells in the presence of modulator: cisplatinum 0.2 mg plus modulator, 48 h; for protection of normal bone marrow cells (result in words): with cisplatinum 0.2 mg, Histidinol 5 mg/injection or R-2HPA 0.38 ug/injection x5, 48 h after treatment, FIG. 2
Description: (§2) Seven groups of mice were treated and assessed in this model as follows:
(§3) P388 cells (1 million) were injected into the tail vein of 22 female DBA/2J mice (Protocol first developed in reference 6 and 8). The mice were then randomly divided into the above groups and injected (ip) with drugs 96 h later. Doses were cisplatinum 0.2 mg at 0 hour; Histidinol 5 mg/injection and R-2HPA 0.38 ug/injection; administered 5 times at −2, 0, +2, +4, and +6 hours. 48 h after drug treatment, cells from the femurs of the mice were harvested, washed and plated (at log10 dilutions) so as to allow quantitative and specific relative cell survival values to be generated for the responses of normal femoral bone marrow cells (specifically, CFU-C/GM or granulocyte/macrophage precursor cells) and clonogenic P388 leukemia cells (8).

P388 leukemia cells = assay: In vivo assessment of anticancer drug modulators: relative cell survival of clonogenic P388 leukemia cells in femurs of mice; settings: DBA/2J mice; for increase of cisplatinum toxicity to the leukemia cells in the presence of modulator / enhanced killing by cisplatinum of P388 cells (result in words): ip, 48 h; for increase of cisplatinum toxicity to the leukemia cells in the presence of modulator: cisplatinum 0.2 mg plus modulator; for enhanced killing by cisplatinum of P388 cells (result in words): with cisplatinum 0.2 mg, Histidinol 5 mg/injection or R-2HPA 0.38 ug/injection x5, FIG. 3
Description: as §2, §3

Row | Molecule | protection of normal fibroblasts from cisplatinum (result in words) (rat2 cells; FIG. 1) | enhanced killing of tumor cells in the presence of cisplatinum (result in words) (NW16 cells) | toxicity of cisplatinum to the marrow cells in the presence of modulator [1] | protection of normal bone marrow cells (result in words) [1] | increase of cisplatinum toxicity to the leukemia cells in the presence of modulator (P388 leukemia cells) | enhanced killing by cisplatinum of P388 cells (result in words) (P388 leukemia cells) | other results
1 | R-deprenyl [reference compound] | less efficacious | – | – | – | – | – | –
2 | C#CCN(C)[C@H](C)CCCCC [R-2HMP, R-2-heptyl-methylpropargylamine] | protect normal cells | enhance the killing of tumor cells | – | – | – | – | concentration at which the effect reverses to a protective effect in tumorigenic cells (NW16 cells; NW16 tumorigenic cells, with cisplatinum, FIG. 1): ≥ 10^−9 M
3 | C#CCN[C@H](C)CCCCC [R-2HPA, R-2-heptyl-propargylamine] | protect normal cells | enhance the killing of tumor cells | essentially eliminated | effective at protecting normal bone marrow cells | ~1000 fold | enhanced the killing by cisplatinum of P388 cells | protection of normal fibroblasts from cisplatinum (result in words) (rat2 cells; FIG. 1, listed as R-2BPA): more potent; therapeutic index between protection of healthy normal cells and killing of cancerous cells (P388 leukemia cells; R-2HPA 0.38 ug dose with cisplatinum): about 50,000
4 | N.N.[Cl][Pt][Cl] [cisplatinum] | – | – | – | – | – | – | effectiveness at killing normal marrow cells relative to intrafemoral leukemia cells, drug used alone ([1]; cisplatinum 0.2 mg ip alone, DBA/2J mice with P388, 48 h): about 100 times
5 | N[C@H](CO)Cc1c[nH]cn1 [histidinol, L-histidinol, reference compound] | exhibits similar properties | – | essentially eliminated | effective at protecting normal bone marrow cells | ~1000 fold | enhanced the killing by cisplatinum of P388 cells | –
6 | C#CCN(C)[C@@H](C)CCCCC [S-2HMP] | inactive | – | – | – | – | – | –
